One series deals with T1, oestrogen receptor (ER) (Homo sapiens, UniProt P03372).
T1 construct: These MVLN cells express, along with the functional oestrogen receptor (ER), a reporter construct; endogenous in cells; host or cells: MVLN cells (MCF7 derivative with ER-responsive luciferase reporter)
T1 sequence (P03372 1-595): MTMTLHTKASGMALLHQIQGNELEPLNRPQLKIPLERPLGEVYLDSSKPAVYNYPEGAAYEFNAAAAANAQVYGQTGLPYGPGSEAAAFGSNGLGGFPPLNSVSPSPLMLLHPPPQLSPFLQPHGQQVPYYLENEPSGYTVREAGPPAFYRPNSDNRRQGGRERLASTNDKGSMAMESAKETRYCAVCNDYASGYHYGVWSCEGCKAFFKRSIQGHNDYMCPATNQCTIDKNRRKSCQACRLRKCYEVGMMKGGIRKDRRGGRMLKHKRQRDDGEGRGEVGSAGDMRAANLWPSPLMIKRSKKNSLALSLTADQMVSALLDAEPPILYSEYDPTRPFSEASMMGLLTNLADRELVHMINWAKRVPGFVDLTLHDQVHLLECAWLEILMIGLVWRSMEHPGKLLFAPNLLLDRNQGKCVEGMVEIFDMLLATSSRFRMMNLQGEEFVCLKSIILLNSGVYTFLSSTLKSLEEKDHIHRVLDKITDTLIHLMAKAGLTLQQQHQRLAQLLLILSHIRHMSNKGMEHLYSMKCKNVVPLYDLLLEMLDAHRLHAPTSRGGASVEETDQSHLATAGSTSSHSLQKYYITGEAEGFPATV
The experiment in a line: Anti-oestrogenic action in MVLN cells (inhibition of estradiol-induced luciferase, transactivation antagonism). The following applies: inhibition of estradiol-induced luciferase activity, read-out: Anti-oestrogenic action in vitro: MVLN transactivation antagonism IC50. It is filed as cell-based. The method, boiled down: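 MCF7-derived MVLN cells carrying an ER-driven luciferase reporter; test compounds applied with estradiol, and anti-oestrogenic action scored as inhibition of the estradiol-induced luciferase signal.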

Series [1] deals with uterus growth induced by 17β-estradiol. As to the kind of experiment: Anti-uterus growth test in the adult rat. Format: in vivo. The following applies: sc; ovariectomized adult rat, 0.3 mg/kg s.c. d1-d3 with 1.5 μg/kg/day 17β-estradiol; percentage inhibition of uterus growth; read-out: Anti-oestrogenic activity in vivo in % at a dose of 0.3 mg/kg (rat). From the text: The uterus of oestrogen-substituted rats can be used as a test model for detecting a direct action of substances with anti-oestrogenic properties. The parameter of oestrogenic action is estradiol-induced uterus growth in rats, which is inhibited by simultaneous administration of a substance with anti-oestrogenic action. The experimental animals (n=5-6 animals/group) were ovariectomized before the start of the test, to rule out the influence of endogenous oestrogens. After a phase of 6 to 10 days, the test substances are administered s.c. on 3 consecutive days (d1-d3) in combination with a substitution dose of 1.5 μg/kg/day of 17β-estradiol. 17β-estradiol alone serves as positive control, and the excipients serve as negative control. On day 4 (d4) the animals are killed, and the uteri and vaginae are removed and weighed. The organ weights are converted to mg/100 g body weight, then the mean value and the standard deviation are calculated for each dosage. The inhibition of uterus or vaginal growth induced by 17β-estradiol is shown as percentage inhibition. The selected claimed substances were investigated in adult female rats as described for their anti-oestrogenic, inhibitory action on the weight of the uterus. At the dosage used, the substances show a marked anti-oestrogenic action in vivo (Table 3 and Table 4).

Series [2] deals with ovarian estradiol synthesis. As to the kind of experiment: Stimulation of ovarian oestrogen synthesis (HPG axis) in hormonally intact adult rats. Format: in vivo, rat. The following applies: 3 mg/kg daily for 10 days, quotient of peripheral estradiol values after and before treatment. From the text:
The clinical use both of pure anti-oestrogens and of various SERMs for the treatment of premenopausal women is limited by their property of stimulating the ovaries through activation of the hypothalamic-pituitary-gonadal axis (HPG axis), which leads to the increase in peripheral estradiol levels (Palomba, S., Orio, F., Jr., Morelli, M., Russo, T., Pellicano, M., Zupi, E., Lombardi, G., Nappi, C., Panici, P. L., and Zullo, F. (2002). Raloxifene administration in premenopausal women with uterine leiomyomas: a pilot study. J Clin Endocrinol Metab 87, 3603-3608). This stimulation of the HPG axis is associated with penetration of the blood-brain barrier and penetration of the brain. To investigate the ovary-stimulating properties of the claimed pharmacological compounds, hormonally intact adult rats were treated with the substances daily for a period of 10 days. The study end point is the quotient of peripheral estradiol values after and before treatment.
Selected claimed pharmacological substances were investigated as described for their stimulating action on the HPG axis or ovarian estradiol synthesis. The selected substances show markedly less stimulation of the ovaries than the control compound raloxifene at equal dosages (cf. Table 5).

For `CN(CCCCCCC1=C(c2ccc(O)cc2)CCCc2cc(O)ccc21)CCCS(=O)(=O)CCCC(F)(F)C(F)(F)F` [Example 27, 8-(4-Hydroxyphenyl)-9-[6-(methyl{3-[(4,4,5,5,5-pentafluoropentyl)sulphonyl]propyl}amino)hexyl]-6,7-dihydro-5H-benzo[7]annulen-3-ol], on oestrogen receptor (ER), the IC50 turned out to be 1 nM. Moreover, the inhibition in vivo at 0.3 mg/kg in series [1] amounted to 80%. In series [2], the “Stimulation of ovarian oestrogen synthesis: factor at a dose of 3 mg/kg rat” value (from here on “Stimulation”) was found to be 2.4.

As to `CN(CCCCCCC1=C(c2ccc(F)c(O)c2)CCCc2cc(O)ccc21)CCCS(=O)(=O)CCCC(F)(F)C(F)(F)F` [Example 29, 8-(4-Fluoro-3-hydroxyphenyl)-9-[6-(methyl{3-[(4,4,5,5,5-pentafluoropentyl)sulphonyl]propyl}amino)hexyl]-6,7-dihydro-5H-benzo[7]annulen-3-ol], at oestrogen receptor (ER), the concentration for half-maximal inhibition (IC50) is 3 nM. Also, the inhibition in vivo at 0.3 mg/kg in series [1] is 61%. Also, the “Stimulation” value in series [2] was found to be 1.1.

With `CN(CCCCCC1=C(c2ccc(O)c(F)c2)CCCc2cc(O)ccc21)CCCS(=O)(=O)CCCC(F)(F)C(F)(F)F` [Example 38, 8-(3-Fluoro-4-hydroxyphenyl)-9-[5-(methyl{3-[(4,4,5,5,5-pentafluoropentyl)sulphonyl]propyl}amino)pentyl]-6,7-dihydro-5H-benzo[7]annulen-3-ol], on oestrogen receptor (ER), the IC50 amounted to 2 nM. Moreover, the inhibition in vivo at 0.3 mg/kg in series [1] amounted to 57%. In series [2], the “Stimulation” value is reported as 1.7.

The record behind these values is US20150080438A1, “6,7-Dihydro-5H-benzo[7]annulene derivatives, processes for their preparation, pharmaceutical products comprising them and their use for preparing medicaments” (Bayer Intellectual Property GmbH, priority 2011, published 2015).
